Among the data in patent US11612604B2, “Methods of treating cancer with PLK4 inhibitors” (LUDWIG INSTITUTE FOR CANCER RESEARCH LTD, priority 2017, dated 2023) are IC50 values, retold here.

The assay has as its target T1, PLK4 (Homo sapiens, UniProt O00444).
T1 sequence (O00444 1-970): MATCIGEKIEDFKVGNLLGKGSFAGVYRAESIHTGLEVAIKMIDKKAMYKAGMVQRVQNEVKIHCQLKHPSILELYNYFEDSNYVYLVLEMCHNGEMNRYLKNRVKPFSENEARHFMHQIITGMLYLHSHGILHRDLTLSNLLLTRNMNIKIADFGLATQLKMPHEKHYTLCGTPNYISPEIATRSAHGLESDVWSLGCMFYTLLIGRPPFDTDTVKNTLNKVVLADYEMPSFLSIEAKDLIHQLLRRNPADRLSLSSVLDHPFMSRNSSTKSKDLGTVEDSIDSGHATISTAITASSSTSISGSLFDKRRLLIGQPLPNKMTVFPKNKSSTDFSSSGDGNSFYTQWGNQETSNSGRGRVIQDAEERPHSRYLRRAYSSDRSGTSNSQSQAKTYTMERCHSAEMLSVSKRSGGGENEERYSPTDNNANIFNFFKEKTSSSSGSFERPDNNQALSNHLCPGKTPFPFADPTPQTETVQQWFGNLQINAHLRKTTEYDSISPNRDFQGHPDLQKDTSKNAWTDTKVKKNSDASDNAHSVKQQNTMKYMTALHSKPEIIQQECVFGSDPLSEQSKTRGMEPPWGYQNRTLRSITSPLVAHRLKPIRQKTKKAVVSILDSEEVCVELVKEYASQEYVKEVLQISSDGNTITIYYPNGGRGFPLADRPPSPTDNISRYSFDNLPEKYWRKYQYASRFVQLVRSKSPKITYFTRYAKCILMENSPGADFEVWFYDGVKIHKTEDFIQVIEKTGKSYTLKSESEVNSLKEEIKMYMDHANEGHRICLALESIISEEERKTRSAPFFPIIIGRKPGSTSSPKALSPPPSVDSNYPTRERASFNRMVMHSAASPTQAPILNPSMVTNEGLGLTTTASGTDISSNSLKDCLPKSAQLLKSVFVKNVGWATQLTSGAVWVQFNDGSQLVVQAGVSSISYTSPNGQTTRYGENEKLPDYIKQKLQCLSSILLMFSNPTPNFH
The assay can be described thus: Activity (IC50) of the Table 1 compounds as PLK4 inhibitors. The format is biochemical. Conditions: Table 1, IC50 class.
As usually defined, the IC50 is the midpoint of a concentration-inhibition curve. Read a high IC50 as lower potency. Consider `COc1c(Nc2cc(C)[nH]n2)nc(Sc2ccc(NC(=O)C3CCCC3)cc2)nc1N(C)C`, for which the IC50 is < 100 nM.

With `COCCNc1nc(Sc2ccc(NC(=O)C3CCCC3)cc2)nc(Nc2cc(C)[nH]n2)c1OC`, the IC50 was < 100 nM. Turning to `COc1c(Nc2ncc(C)s2)nc(Sc2ccc(S(C)(=O)=O)cc2)nc1N1CCN(CCN(C)C)CC1`, the IC50 was < 100 nM. For `COc1c(Nc2cc(C)[nH]n2)nc(Sc2ccc(NC(C)=O)cc2)nc1C1CCN(CCN2CCN(C)CC2)CC1` the value was 100 to 1000 nM; for `COc1c(Nc2cc(C)[nH]n2)nc(Sc2ccc(S(=O)(=O)CCO)cc2)nc1N1CCN(CCN(C)C)CC1`, < 100 nM; for `CCCS(=O)(=O)c1ccc(Sc2nc(Cc3cc(C)[nH]n3)c(OC)c(N3CCN(CCN(C)C)CC3)n2)cc1`, < 100 nM.

Take `CCS(=O)(=O)c1ccc(Sc2nc(Nc3cc(C)[nH]n3)c(OC)c(N3CCC(CCN(C)C)CC3)n2)cc1`: the IC50 was < 100 nM. For `COc1c(Nc2cc(C)[nH]n2)nc(Sc2ccc(S(=O)(=O)CC(C)C)cc2)nc1N1CCN(CCN(C)C)CC1` the value was < 100 nM; for `CCS(=O)(=O)c1ccc(Sc2nc(Nc3cc(C)[nH]n3)c(OC)c(N3CCN(CCN4CCN(C)CC4)CC3)n2)cc1`, < 100 nM; for `COc1c(Nc2cc(C)[nH]n2)nc(Sc2ccc(S(=O)(=O)C(C)C)cc2)nc1N1CCN(CCN(C)C)CC1`, < 100 nM. On to `COc1c(Nc2cc(C)[nH]n2)nc(Sc2ccc(S(=O)(=O)Cc3ccc(F)cc3)cc2)nc1N1CCN(CCN(C)C)CC1`, for which the IC50 was < 100 nM. For `COc1ccc(CS(=O)(=O)c2ccc(Sc3nc(Nc4cc(C)[nH]n4)c(OC)c(N4CCN(CCN(C)C)CC4)n3)cc2)cc1` the value was < 100 nM; for `COc1c(Nc2cc(C)[nH]n2)nc(Sc2ccc(S(=O)(=O)Cc3ccccc3Cl)cc2)nc1N1CCN(CCN(C)C)CC1`, < 100 nM. As for `COc1c(Nc2cc(C)[nH]n2)nc(Sc2ccc(S(=O)(=O)Cc3cccc(Cl)c3)cc2)nc1N1CCN(CCN(C)C)CC1`, the IC50 is < 100 nM.

Regarding `COc1c(Nc2cc(C)[nH]n2)nc(Sc2ccc(S(=O)(=O)Cc3ccncc3)cc2)nc1N1CCN(CCN(C)C)CC1`, the 50% inhibitory concentration (IC50) is < 100 nM. As for `COc1c(Nc2cc(C)[nH]n2)nc(Sc2ccc(S(=O)(=O)Cc3ccccc3)cc2)nc1N1CCC(CCN(C)C)CC1`, the IC50 is < 100 nM. Consider `COc1c(Nc2cc(C)[nH]n2)nc(Sc2ccc(S(=O)(=O)Cc3ccccc3)cc2)nc1N1CCN(C)CC1`, for which the IC50 is < 100 nM.

For `CCS(=O)(=O)c1ccc(Sc2nc(Nc3cc(C)[nH]n3)c(OC)c(N3CCN(C)CC3)n2)cc1`, the IC50 was < 100 nM. In the case of `COc1c(Nc2cc(C)[nH]n2)nc(Sc2ccc(S(=O)(=O)Cc3cccnc3)cc2)nc1N1CCN(CCN(C)C)CC1`, the IC50 is < 100 nM. For `COc1c(Nc2cc(C)[nH]n2)nc(Sc2ccc(S(=O)(=O)Cc3ccc(Cl)cc3)cc2)nc1N1CCN(CCN(C)C)CC1`, the IC50 is < 100 nM.

Turning to `COc1c(Nc2cc(C)[nH]n2)nc(Sc2ccc(S(=O)(=O)Cc3ccccc3)cc2)nc1N1CCN(CCN2C3CCCC2CCC3)CC1`, the IC50 was < 100 nM.

With `COc1c(Nc2cc(C)[nH]n2)nc(Sc2ccc(S(=O)(=O)Cc3cccs3)cc2)nc1N1CCN(CCN(C)C)CC1`, the IC50 is < 100 nM. For `CCS(=O)(=O)c1ccc(Sc2nc(Nc3cc(C)[nH]n3)c(OC)c(N3CCNCC3)n2)cc1` the value was < 100 nM. As for `COc1c(Nc2cc(C)[nH]n2)nc(Sc2ccc(S(=O)(=O)Cc3nccs3)cc2)nc1N1CCN(CCN(C)C)CC1`, the IC50 is < 100 nM. Take `CCS(=O)(=O)c1ccc(Sc2nc(Nc3cc(C)[nH]n3)c(OC)c(C3CCN(CCN(C)C)CC3)n2)cc1`: the IC50 is < 100 nM.

Regarding `COc1c(Nc2cc(C)[nH]n2)nc(Sc2ccc(S(=O)(=O)Cc3ccccc3)cc2)nc1C1CCN(CCN(C)C)CC1`, the IC50 is < 100 nM.

Regarding `CCS(=O)(=O)c1ccc(Sc2nc(Nc3cc(C)[nH]n3)c(OC)c(N3CCC(CCN4C5CCCC4CCC5)CC3)n2)cc1`, the IC50 is < 100 nM. For `COc1c(Nc2cc(C)[nH]n2)nc(Sc2ccc(S(=O)(=O)Cc3ncc[nH]3)cc2)nc1N1CCN(CCN(C)C)CC1` the value was < 100 nM; for `CCS(=O)(=O)c1ccc(Sc2nc(C)c(OC)c(Nc3cc(C)[nH]n3)n2)cc1`, < 100 nM; for `COc1c(C)nc(Sc2ccc(S(=O)(=O)Cc3ccccc3)cc2)nc1Nc1cc(C)[nH]n1`, < 100 nM. To `COc1c(Nc2cc(C)[nH]n2)nc(Sc2ccc(S(=O)(=O)CCN(C)C)cc2)nc1N1CCN(CCN(C)C)CC1` belongs < 100 nM; to `COc1c(Nc2cc(C)[nH]n2)nc(Sc2ccc(S(=O)(=O)c3ccccc3)cc2)nc1N1CCN(CCN(C)C)CC1`, < 100 nM; to `COc1c(Nc2cc(C)[nH]n2)nc(Sc2ccc(S(=O)(=O)Cc3ncco3)cc2)nc1N1CCN(CCN(C)C)CC1`, < 100 nM. As for `CCOc1c(Nc2cc(C)[nH]n2)nc(Sc2ccc(S(=O)(=O)CC)cc2)nc1N1CCN(CCN(C)C)CC1`, the IC50 was < 100 nM. To `CCOc1c(Nc2cc(C)[nH]n2)nc(Sc2ccc(S(=O)(=O)Cc3ccccc3)cc2)nc1N1CCN(CCN(C)C)CC1` belongs < 100 nM; to `COc1c(Nc2cc(C)[nH]n2)nc(Sc2ccc(S(=O)(=O)Cc3ccccc3)cc2)nc1N1CCOCC1`, < 100 nM. With `COc1c(Nc2cc(C)[nH]n2)nc(Sc2ccc(S(=O)(=O)Cc3ccccc3)cc2)nc1N(C)C`, the IC50 is < 100 nM. For `COc1c(Nc2cc(C)[nH]n2)nc(Sc2ccc(S(=O)(=O)Cc3ccccc3)cc2)nc1N1CCCCC1` the value was < 100 nM.

With `COc1c(Nc2cc(C)[nH]n2)nc(Sc2ccc(S(=O)(=O)Cc3ccccc3)cc2)nc1N1CCN(CCN2CCN(C)CC2)CC1`, the IC50 is < 100 nM.

With `COc1c(Nc2cc(C)[nH]n2)nc(Sc2ccc(S(=O)(=O)Cc3ccccc3)cc2)nc1N1CCN(CCN2C3CCCC2CC3)CC1`, the IC50 is < 100 nM. For `Cc1cc(Nc2nc(Sc3ccc(S(=O)(=O)Cc4ccccc4)cc3)nc(N3CCN(CCN(C)C)CC3)c2C)n[nH]1` the value was < 100 nM; for `Cc1cc(Nc2cc(N3CCN(CCN(C)C)CC3)nc(Sc3ccc(S(=O)(=O)Cc4ccccc4)cc3)n2)n[nH]1`, < 100 nM; for `COc1c(Nc2cc[nH]n2)nc(Sc2ccc(S(=O)(=O)Cc3ccccc3)cc2)nc1N1CCN(CCN(C)C)CC1`, < 100 nM. To `CCS(=O)(=O)c1ccc(Sc2nc(Nc3cc(C)[nH]n3)c(OC)c(N3CCCCC3)n2)cc1` belongs < 100 nM; to `CCS(=O)(=O)c1ccc(Sc2nc(Nc3cc(C)[nH]n3)c(OC)c(N3CCOCC3)n2)cc1`, < 100 nM; to `COc1c(Nc2cc(C)[nH]n2)nc(Sc2ccc(S(=O)(=O)Cc3cccc([N+](=O)[O-])c3)cc2)nc1N1CCN(CCN(C)C)CC1`, < 100 nM. In the case of `COc1c(Nc2cc(C)[nH]n2)nc(Sc2ccc(S(=O)(=O)Cc3ccc([N+](=O)[O-])cc3)cc2)nc1N1CCN(CCN(C)C)CC1`, the IC50 is < 100 nM. On to `CCN(CC)c1nc(Sc2ccc(S(=O)(=O)Cc3ccccc3)cc2)nc(Nc2cc(C)[nH]n2)c1OC`, for which the IC50 is < 100 nM.

As for `CCN(CC)c1nc(Sc2ccc(S(=O)(=O)CC)cc2)nc(Nc2cc(C)[nH]n2)c1OC`, the IC50 was < 100 nM. Take `CCOc1c(Nc2cc(C)[nH]n2)nc(Sc2ccc(S(=O)(=O)Cc3ccccc3)cc2)nc1N1CCNCC1`: the IC50 is < 100 nM. For `CCOc1c(Nc2cc(C)[nH]n2)nc(Sc2ccc(S(=O)(=O)CC)cc2)nc1N1CCNCC1` the value was < 100 nM.

In the case of `COc1c(Nc2cc(C)[nH]n2)nc(Sc2ccc(S(=O)(=O)Cc3ccc(F)cc3F)cc2)nc1N1CCN(CCN(C)C)CC1`, the IC50 was < 100 nM. For `COc1c(Nc2cc(C)[nH]n2)nc(Sc2ccc(S(=O)(=O)Cc3ccccc3F)cc2)nc1N1CCN(CCN(C)C)CC1` the value was < 100 nM; for `COc1c(Nc2cc(C)[nH]n2)nc(Sc2ccc(S(=O)(=O)Cc3ccccc3)cc2)nc1N1CCN(CCN(C)c2ccccc2)CC1`, < 100 nM; for `CCCOc1c(Nc2cc(C)[nH]n2)nc(Sc2ccc(S(=O)(=O)Cc3ccccc3)cc2)nc1N1CCN(CCN(C)C)CC1`, < 100 nM.

For `Cc1cc(Nc2nc(Sc3ccc(S(=O)(=O)Cc4ccccc4)cc3)nc(N3CCN(CCN(C)C)CC3)c2OC(C)C)n[nH]1`, the 50% inhibitory concentration (IC50) was < 100 nM.

With `COc1c(Nc2cc(C)[nH]n2)nc(Sc2ccc(S(=O)(=O)Cc3cccc(O)c3)cc2)nc1N1CCN(CCN(C)C)CC1`, the IC50 is < 100 nM.

Turning to `COc1c(Nc2cc(C)[nH]n2)nc(Sc2ccc(S(=O)(=O)Cc3cccc(OCc4ccccc4)c3)cc2)nc1N1CCN(CCN(C)C)CC1`, the IC50 was < 100 nM.

With `CCOc1c(Nc2cc(C)[nH]n2)nc(Sc2ccc(S(=O)(=O)Cc3ccccc3)cc2)nc1N1CCN(CCN2C3CCCC2CC3)CC1`, the IC50 was < 100 nM. For the molecule `CCOc1c(Nc2cc(C)[nH]n2)nc(Sc2ccc(S(=O)(=O)CC)cc2)nc1N1CCC(CCN(C)C)CC1`, the IC50 is < 100 nM.
